The assay has as its target T1, recombinant human liver GK (Homo sapiens, UniProt P35557).
T1 construct: made in house; host or cells: E. coli
T1 sequence (P35557 1-466 isoform P35557-2): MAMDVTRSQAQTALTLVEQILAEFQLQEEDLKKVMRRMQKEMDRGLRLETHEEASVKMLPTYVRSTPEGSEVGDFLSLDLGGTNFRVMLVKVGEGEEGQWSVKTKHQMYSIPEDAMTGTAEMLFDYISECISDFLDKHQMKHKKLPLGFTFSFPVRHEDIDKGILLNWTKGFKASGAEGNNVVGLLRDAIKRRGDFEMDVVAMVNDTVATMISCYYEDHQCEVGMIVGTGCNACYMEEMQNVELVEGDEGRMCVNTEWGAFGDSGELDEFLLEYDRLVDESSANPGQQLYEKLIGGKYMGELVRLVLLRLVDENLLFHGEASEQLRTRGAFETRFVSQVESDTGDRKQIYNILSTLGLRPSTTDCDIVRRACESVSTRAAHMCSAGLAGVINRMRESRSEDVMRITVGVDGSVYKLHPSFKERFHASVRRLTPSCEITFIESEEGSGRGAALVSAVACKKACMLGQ
As to the kind of experiment: GK-activating potency: glucokinase activity via Thio-NADH level (G6PDH reporter enzyme). The class given is biochemical. As to conditions: FLAG-GK, 30° C., final glucose concentration 2.5 mM; for Emax: OD level of DMSO control set as 100%. From the text: The excellent glucokinase-activating effect of the compounds of formula (I) may be determined by a method described in references (for example, Diabetes, Vol. 45, pp. 1671-1677, 1996), or in accordance with it.
The glucokinase activity may be determined not by directly measuring glucose-6-phosphate but by measuring the level of Thio-NADH, which is produced when a reporter enzyme, glucose-6-phosphate dehydrogenase produces phosphogluconolactone from glucose-6-phosphate, and based on the level, the degree of glucokinase activity of the compound tested may be determined.
In this assay, used was a recombinant human liver GK, which was expressed by E. coli as a FLAG fusion protein therein and was purified by ANTIFLAG M2 AFFINITY GEL (Sigma).
Using a flat-bottomed 96-well plate, the assay was carried out at 30° C. 69 μl of an assay buffer (25 mM Hepes Buffer/pH=7.2, 2 mM MgCl2, 1 mM ATP, 0.5 mM TNAD, 1 mM dithiothreitol) was put into the plate, and 1 μl of a DMSO solution of the compound or DMSO alone as a control was added thereto. Next, 20 μl of an enzyme mixture (FLAG-GK, 20 U/ml G6PDH) cooled in ice was added to it, and 10 μl of a substrate, 25 mM glucose was added to it, and the reaction was initiated (final glucose concentration=2.5 mM).
After the start of the reaction, the increase in the absorbance at 405 nm was measured for 12 minutes at intervals of 30 seconds, and the increase for the first 5 minutes was used for evaluating the compound tested. FLAG-GK was added so that the absorbance increase after 5 minutes in the presence of 1% DMSO could be from 0.04 to 0.06.
The OD level of the DMSO control was set as 100%; and the OD level of the test compound at different concentrations was determined. From the OD level at each concentration, Emax (%) and EC50 (μM) were computed and used as the index of the GK-activating potency of the compound.

Consider three compounds from US7932394B2, “Aryloxy-substituted benzimidazole derivatives” (MSD K.K., priority 2004, dated 2011).

What is called EC50 is the concentration giving half of the maximal effect. For orientation: Emax means the size of the effect at its maximum, as opposed to the concentration needed.

As for `CS(=O)(=O)c1ccc(Oc2cc3nc(-c4ccccn4)[nH]c3cc2CN2C(=O)CCC2=O)cc1` [Example 1, 1-{[5-[4-(Methylsulfonyl)phenoxy]-2-(2-pyridinyl)-1H-benzimidazol-6-yl]methyl}pyrrolidine-2,5-dione], the 50% effective concentration (EC50) turned out to be 120 nM.
Take `CCS(=O)(=O)c1ccc(Oc2cc3nc(-c4ccccn4)[nH]c3cc2Cc2ccc(F)cc2)cc1` [Example 65, 5-[4-(Ethylsulfonyl)phenoxy]-6-(4-fluorobenzyl)-2-(2-pyridinyl)-1H-benzimidazole]: the 50% effective concentration (EC50) turned out to be 360 nM and the Emax worked out at 805%.
As for `CCS(=O)(=O)c1ccc(Oc2cc3nc(-c4ccccn4)[nH]c3cc2CNS(C)(=O)=O)cc1` [Example 31, N-{[5-[4-(ethylsulfonyl)phenoxy]-2-(2-pyridinyl)-1H-benzimidazol-6-yl]methyl}methanesulfonamide], the EC50 worked out at 490 nM and the Emax amounted to 982%.
